Results from patent US20120130146A1, “CONTINUOUS ADMINISTRATION OF CILENGITIDE IN CANCER TREATMENTS” (Merck Patent GmbH, priority 2009, published 2012).
Where “and” joins values, the source holds several entries; their conditions need not be identical. Identical values can stand only once. Like-named read-outs stand apart in the source and are kept apart here.

What was measured:
[1] = Continuous infusion study pharmacokinetics (plasma); assay type: in vivo, human; settings: for dose proportionality of steady-state concentration (Css): continuous infusion 1-12 mg/h; for level at 2 h / level at 168 h / level at 170 h / level at 336 h / level at 338 h / level at 504 h / level at 506 h: iv
Method: Patients with solid tumors received a continuous infusion of 1 mg/h, 2 mg/h, 4 mg/h, 8 mg/h or 12 mg/h. with a weekly change of infusion bag.
Blood samples were taken on Day 1 (first dose) at pre-dose and 2 h after start of infusion and then weekly just before change of infusion bag and 2 hours thereafter for the first 4 weeks.
The following pharmacokinetic parameters were derived at Merck KGaA. Darmstadt, Germany, by mathematical methods using Kinetica Version 4.1.1.
CL the total body clearance of EMD 121974 from plasma Css plasma concentration at steady state ke elimination rate constant Rate infusion rate t1/2, half life V Volume of distribution
Css, the plasma concentration at steady state, has been estimated by the arithmetic mean of all concentration values from time point 168 h to 506 h per patient.
From Css and t1/2 the PK parameters CL, ke and V were calculated as follows: […]

[2] = test system: newly diagnosed glioblastoma (GBM); assay: Phase I/IIa trial of cilengitide and temozolomide with concomitant radiotherapy in newly diagnosed glioblastoma; assay type: in vivo, human
Method: Purpose: To evaluate safety, toxicity, and efficacy of the combination of the cyclic RGD pentapeptide Cilengitide (=cyclo-(Arg-Gly-Asp-DPhe-NMe-Val)), an inhibitor of integrins avβ3 and avβ5, in addition to standard temozolomide (TMZ) and radiotherapy (RT).
Patients and methods: Fifty-two pts (PS 0-1: 92%, 2: 8%; median age 57 yrs) after biopsy (n=9/17%) or tumor resection (n=43/83%) were treated with standard TMZ/RT (Stupp et al. NEJM 2005). In addition Cilengitide (500 mg i.v., 2×/week) was started one week before TMZ/RT and given throughout for the duration of chemotherapy or until progression. Primary endpoint was progression free survival rate at 6 months (target: 65%). Patients were followed with MRI every 2 months. Histopathologic diagnosis and MRI imaging were independently reviewed, MGMT promotor methylation status was assessed in 45 (86.5%) pts.

[3] = Rate 12 mg/h, Mean, t1/2 = 4 hours
[4] = human, plasma, 1 mg/h, Rate 1 mg/h, Mean, read-out: EMD 121974 Concentrations, Mean
[5] = human, plasma, 2 mg/h, Rate 2 mg/h, Mean, read-out: EMD 121974 Concentrations, Mean
[6] = human, plasma, 4 mg/h, Rate 4 mg/h, Mean, read-out: EMD 121974 Concentrations, Mean
[7] = human, plasma, 8 mg/h, Rate 8 mg/h, Mean, read-out: EMD 121974 Concentrations, Mean
[8] = human, plasma, 12 mg/h, Rate 12 mg/h, Mean, read-out: EMD 121974 Concentrations, Mean
[9] = Cilengitide 500 mg i.v. 2x/week in addition to standard TMZ/RT

Compound: CC(C)[C@H]1C(=O)N[C@@H](CCCN=C(N)N)C(=O)NCC(=O)N[C@@H](CC(=O)O)C(=O)N[C@H](Cc2ccccc2)C(=O)N1C [Cilengitide, cyclo-(Arg-Gly-Asp-DPhe-NMeVal)]
- EMD 121974 Concentrations ([1]; Rate 12 mg/h, 506 h, individual subjects, listed as EMD 121974): 1550.00 ng/mL and 1230.00 ng/mL and 1880.00 ng/mL
- CL ([1]; Rate 12 mg/h, CL=Rate/Css, individual subjects, listed as EMD 121974): 7.66 L/h and 6.75 L/h
- V, Mean [1, 3]: 39.5 L
- ke, Mean [1, 3]: 0.173 h⁻¹
- V ([1]; Rate 12 mg/h, V=CL/ke, t1/2 = 4 hours, individual subjects, listed as EMD 121974): 35.4 L and 44.2 L and 39.0 L
- ke ([1]; Rate 12 mg/h, for t1/2 = 4 hours, individual subjects): 0.173 h⁻¹
- Css ([1]; Rate 12 mg/h, mean of 168 h to 506 h values per patient, individual subjects, listed as EMD 121974): 1956.2 ng/mL and 1566.5 ng/mL and 1776.7 ng/mL
- time to reach steady state conditions ([1]; assuming a half-life of 4 hours): ≤ 24 h
- dose proportionality of steady-state concentration (Css) ([1]; listed as EMD): increased proportionally to dose
- dose proportionality of steady-state concentration (Css) ([1]; listed as EMD 121974): increase proportional to dose
- clearance ([1]; human, plasma, intravenous, 1 mg/h, Rate 1 mg/h, Mean, read-out: CL, Mean (converted)): 139 mL/min
- clearance ([1]; human, plasma, intravenous, 2 mg/h, Rate 2 mg/h, CL=Rate/Css, individual subjects, read-out: CL (converted)): 115 mL/min
- clearance ([1]; human, plasma, intravenous, 2 mg/h, Rate 2 mg/h, Mean, read-out: CL, Mean (converted)): 95.3 mL/min
- clearance ([1]; human, plasma, intravenous, 4 mg/h, Rate 4 mg/h, CL=Rate/Css, individual subjects, read-out: CL (converted)): 107 mL/min
- clearance ([1]; human, plasma, intravenous, 4 mg/h, Rate 4 mg/h, Mean, read-out: CL, Mean (converted)): 109 mL/min
- clearance ([1]; human, plasma, intravenous, 8 mg/h, Rate 8 mg/h, Mean, read-out: CL, Mean (converted)): 112 mL/min
- clearance ([1]; human, plasma, intravenous, 12 mg/h, Rate 12 mg/h, CL=Rate/Css, individual subjects, read-out: CL (converted)): 102 mL/min
- clearance ([1]; human, plasma, intravenous, 12 mg/h, Rate 12 mg/h, Mean, read-out: CL, Mean (converted)): 114 mL/min
- clearance ([1]; human, plasma, intravenous, range of dose-group means, 1-12 mg/h, read-out: mean clearance): 95.3 to 139 mL/min
- Vd ([1]; human, plasma, intravenous, range of dose-group means, 1-12 mg/h, t1/2 = 4 hours assumed, read-out: Mean volume of distribution): 33 to 48 L
- level at 2 h [1, 4]: 39.1 ng/mL
- level at 168 h [1, 4]: 156 ng/mL
- level at 170 h [1, 4]: 66.6 ng/mL
- level at 336 h [1, 4]: 209 ng/mL
- level at 338 h [1, 4]: 191 ng/mL
- level at 504 h [1, 4]: 62.1 ng/mL
- level at 504 h ([1]; human, plasma, 1 mg/h, Rate 1 mg/h, individual subjects, read-out: EMD 121974 Concentrations): 62.1 ng/mL
- level at 506 h ([1]; human, plasma, 1 mg/h, Rate 1 mg/h, 506 h, Mean, read-out: EMD 121974 Concentrations, Mean): 109 ng/mL
- level at 506 h ([1]; human, plasma, 1 mg/h, Rate 1 mg/h, 506 h, individual subjects, read-out: EMD 121974 Concentrations): 94.4 ng/mL
- level at 2 h [1, 5]: 162 ng/mL
- level at 168 h [1, 5]: 344 ng/mL
- level at 170 h [1, 5]: 280 ng/mL
- level at 336 h [1, 5]: 495 ng/mL
- level at 338 h [1, 5]: 360 ng/mL
- level at 504 h [1, 5]: 376 ng/mL
- level at 506 h ([1]; human, plasma, 2 mg/h, Rate 2 mg/h, 506 h, Mean, read-out: EMD 121974 Concentrations, Mean): 337 ng/mL
- level at 2 h [1, 6]: 328 ng/mL
- level at 168 h [1, 6]: 626 ng/mL
- level at 170 h [1, 6]: 516 ng/mL
- level at 336 h [1, 6]: 726 ng/mL
- level at 338 h [1, 6]: 559 ng/mL
- level at 504 h [1, 6]: 665 ng/mL
- level at 506 h ([1]; human, plasma, 4 mg/h, Rate 4 mg/h, 506 h, Mean, read-out: EMD 121974 Concentrations, Mean): 681 ng/mL
- level at 2 h [1, 7]: 503 ng/mL
- level at 168 h [1, 7]: 1460 ng/mL
- level at 170 h [1, 7]: 1210 ng/mL
- level at 336 h [1, 7]: 525 ng/mL
- level at 338 h [1, 7]: 972 ng/mL
- level at 504 h [1, 7]: 1630 ng/mL
- level at 506 h ([1]; human, plasma, 8 mg/h, Rate 8 mg/h, 506 h, Mean, read-out: EMD 121974 Concentrations, Mean): 1290 ng/mL
- level at 2 h [1, 8]: 499 ng/mL
- level at 168 h [1, 8]: 1770 ng/mL
- level at 170 h [1, 8]: 1410 ng/mL
- level at 336 h [1, 8]: 2440 ng/mL
- level at 338 h [1, 8]: 1670 ng/mL
- level at 504 h [1, 8]: 1750 ng/mL
- level at 506 h ([1]; human, plasma, 12 mg/h, Rate 12 mg/h, 506 h, Mean, read-out: EMD 121974 Concentrations, Mean): 1550 ng/mL
- haematological grade 3 and 4 toxicity: lymphopenia [2, 9]: 53.8%
- haematological grade 3 and 4 toxicity: neutropenia [2, 9]: 9.6%
- haematological grade 3 and 4 toxicity: thrombocytopenia [2, 9]: 13.4%
- patients with treatment related non-hematologic grade 3 toxicities [2, 9]: 5.7%
- patients progression free at 6 months (PFS-6) ([2]; all 52 pts, Cilengitide in addition to TMZ/RT): 65.4%
- tolerability ([2]; combination of Cilengitide and TMZ/RT): well tolerated
- PFS-6 rate ([2]; subgroup with methylated MGMT promoter (23/52), Cilengitide in addition to TMZ/RT): 91%
- PFS-6 rate ([2]; subgroup with unmethylated MGMT promotor (22/52), Cilengitide in addition to TMZ/RT): 40.9%
